Results taken from article PMC6890495 (Chemical research in toxicology, 2019).

Legend:
[1] = target: T1, recombinant human ALKBH2 protein (Homo sapiens, UniProt Q6NS38); assay: Fe; format: biochemical; conditions: for change of repair efficiency with increasing Fe(II) ion: rhein 50 μM
T1 sequence (Q6NS38 1-261): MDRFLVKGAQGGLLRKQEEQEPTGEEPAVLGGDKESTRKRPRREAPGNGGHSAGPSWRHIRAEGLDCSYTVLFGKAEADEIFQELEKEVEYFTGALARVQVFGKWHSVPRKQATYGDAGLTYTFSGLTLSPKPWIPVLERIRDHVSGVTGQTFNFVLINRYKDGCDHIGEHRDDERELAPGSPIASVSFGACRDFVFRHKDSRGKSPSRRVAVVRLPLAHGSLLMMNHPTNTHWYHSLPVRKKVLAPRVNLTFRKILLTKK

[2] = target: T1, recombinant human ALKBH2 protein; assay: α-ketoglutarate competitor test: ALKBH2 repair with varying αKG and fixed Fe; format: biochemical; conditions: for change of repair efficiency with increasing αKG: Fe(II) 10 μM, rhein 50 μM, compound 7 2 μM

Row | Molecule | change of repair efficiency with increasing Fe(II) ion ([1]; Fe(II) 5 to 80 μM, αKG 93 μM) | repair efficiency ([2]; 2 μM compound, αKG 50 to 800 μM, Fe(II) kept at 10 μM) | change of repair efficiency with increasing αKG ([2]; αKG 50 to 800 μM) | reactivity (repair) ([1]; 5 μM Fe(II) ion, αKG kept at 93 μM) | repair efficiency ([1]; Fe(II) ion concentration increased up to 80 μM, αKG 93 μM, control ~95% repair) | repair ratio ([2]; 50 μM rhein, 50 μM αKG, Fe(II) fixed at 10 μM) | repair efficiency ([1]; 50 μM rhein, Fe(II) 5 to 80 μM, αKG fixed at 93 μM)
1 | O=C(O)c1cc(O)c(O)c(O)c1 [compound 2, gallic acid] | recovered in a concentration-dependent manner | – | – | – | – | – | –
2 | O=C(OC[C@H]1O[C@@H](OC(=O)c2cc(O)c(O)c(O)c2)[C@H](OC(=O)c2cc(O)c(O)c(O)c2)[C@@H](OC(=O)c2cc(O)c(O)c(O)c2)[C@@H]1OC(=O)c1cc(O)c(O)c(O)c1)c1cc(O)c(O)c(O)c1 [compound 5, pentagalloyl glucose] | recovered in a concentration-dependent manner | – | – | – | – | – | –
3 | tannic acid [compound 7] | restored in a concentration-dependent manner | ~ 25% | did not vary significantly | 5% | up to 60% | – | –
4 | O=C(O)c1cc(O)c2c(c1)C(=O)c1cccc(O)c1C2=O [rhein, Rhein, reference compound] | no significant change | – | recovered in a concentration-dependent manner | – | – | 30% | around 36%
